Laboratory results reported in patent US20030157672A1, “Nitrilase from rhodococcus rhodochrous ncimb 11216” (priority 2000, published 2003).

Columns and labels:
[1] = tested on: nitrilase (nitA) from Rhodococcus rhodochrous NCIMB 11216 expressed in E. coli JM 109; assay: Conversion of nitriles by E. coli JM 109 (pDHE 17 and pDHE 18) cells; NH4 ions produced in supernatant, measured at 620 nm; assay type: biochemical; conditions: 30° C., 1 h, measurement at 620 nm; for amount of NH4 ions produced in the supernatant (Table 2, Experiment 2): Experiment 2, in analogy to Experiment 1, E. coli JM 109 cells; for amount of NH4 ions produced in the supernatant (Table 1, Experiment 1): E. coli JM 109 (pDHE 17 and pDHE 18) cells, 2 g DBM/l, 200 rpm
Protocol: Various nitriles were converted using the E. coli strains JM 109 (pDHE 17 and pDHE 18). The cells were for this purpose cultured in 250 ml LB/Amp medium+2 g/l rhamnose at 30° C. and 200 rpm for 9 hours (=h). The cells were harvested by-centrifugation (20 min, 4° C., 5000 rpm). The cells were then resuspended in 10 mM phosphate buffer, pH 7.2, so that the concentration of dry biomass (DBM) was 2 g DBM/l. 150 μl portions of the cell suspension were pipetted into each well of a microtiter plate. The plate was then centrifuged. The supernatant was aspirated off and the cell pellets were washed twice with Na2HPO4 [sic] (1.42 g/lin Finnagua, pH 7.2). After another centrifugation step, the cell pellets are [sic] resuspended in the respective substrate solution (150 μl). One substrate was added to each row of 12 in the microtiter plate. A row with substrate solution but without cells was used as control (blank). The microtiter plates were incubated in a shaking incubator at 30° C. and 200 rpm for 1 h. The cells were then spun down and the amount of NH4 [sic] ions produced in the supernatant was determined using a Biomek instrument. Measurement took place at 620 nm, comparing with a calibration plot produced using various NH4OH solutions. The substrates employed in Experiment 1 (see FIG. 3, Table 1) were the following substrates: benzonitrile (=1), 3-hydroxypropionitrile (=2), 2-methylglutaronitrile (=3), 4-chloro-3-hydroxybutyronitrile (=4), malononitrile (=5), crotononitrile (=6), geranonitrile (=7), octanedinitrile (=8), pivalonitrile (=9), aminocapronitrile (=10), 3,4-dihydroxybenzonitrile (=11), 3,5-dibromo-4-hydroxybenzonitrile (=12), 3-cyanopyridine (=13), 4-bromobenzyl cyanide (=14), 4-chlorobenzyl cyanide (=15), 2-phenylbutyronitrile (=16), 2-chlorobenzyl cyanide (=17), 2-pyridylacetonitrile (=18), 4-fluorobenzyl cyanide (=19), 4-methylbenzonitrile (=20), benzyl cyanide (=21). The substrates used in Experiment 2 (see FIG. 4, Table 2), which was carried out in analogy to Experiment 1, were as follows: […]

[2] = Conversion of benzonitrile into benzoic acid by nitrilase crude extract or purified nitrilase (HPLC); assay type: biochemical; conditions: purified using QIAexpress-Ni2+-NTA; enzyme concentration 50 μg/ml; initial benzonitrile 10 mM, 30° C., pH 7.5, 50 mM Tris/HCl, 0.1 mM DTT
Protocol: For heterologous expression on the laboratory scale, JM 109 (pDHE 17) from a 37° C. overnight culture was inoculated 1:200 in 50 ml dYT complete mediumn (Sambrook et al., 1989) with 0.2% L-rhamnose, and the culture was cultivated with induction in the shaking water bath at 30° C. for 8 h. The cells were then washed once in 50 mM Tris/HCl, pH 7.5, resuspended in the same buffer equivalent to an OD600 of 10, and disrupted by ultrasound treatment. The procedure with JM 109 (pDHE 18) was analogous. The protein pattern of the crude extracts obtained by ultrasound treatment and clarified by centrifugation was determined by SDS polyacrylamide gel electrophoresis, comparing with the noninduced control; with the induction conditions mentioned, the proportion of nitrilase in the protein was about 30% for each of JM 109 (pDHE 17) and JM 109 (pDHE 18).
The nitrilase with His6 motif from JM 109 (pDHE 18) was purified by washing the cells in 50 mM Tris/HCl, pH 7.5, resuspending equivalent to about 50 OD600/ml and preparing extracts with a French press (2×at 20000 psi). […]
In this case, one unit is equivalent to the production of 1 μmol of benzoic acid at an initial benzonitrile concentration of 10 mM, 30° C. and pH 7.5. […] The formation of benzoic acid was determined by HPLC (RP18 column, 250×4 [lacuna], mobile phase 47% methanol, 0.3% H3PO4).

Molecule	amount of NH4 ions produced in the supernatant (Table 2, Experiment 2) [1]	amount of NH4 ions produced in the supernatant (Table 1, Experiment 1) [1]	also measured
N#C/C=C/c1ccccc1 [trans-cinnamonitrile]	2.2509		
N#CCCCCCCC#N [Octanedinitrile]		0.4548	
CC(O)C#N (stereo not shown) [2-Hydroxypropionitrile]	0.0000		
N#CCCCCCN [Aminocapronitrile]		0.1236	
CCC(C#N)c1ccccc1 (stereo not shown) [2-Phenylbutyronitrile]		0.1376	
N#CCC(O)CCl (stereo not shown) [4-Chloro-3-hydroxybutyronitrile]		0.1208	
N#CCCCC#N [Glutaronitrile]	2.0809		
Cc1ccc(C#N)cc1 [4-Methylbenzonitrile]		0.4326	
N#CCc1ccccc1 [Benzyl cyanide]		0.2755	
N#C/C=C/C#N [Fumaronitrile]	2.2510		
CCC#N [Propionitrile]	0.4135		
N#Cc1ccsc1 [3-Cyanothiophene]	1.9038		
N#Cc1ccc(O)c(O)c1 [3,4-Dihydroxybenzonitrile]		0.1569	
N#Cc1cc(Br)c(O)c(Br)c1 [3,5-Dibromo-4-hydroxybenzonitrile]		0.1624	
N#CC(N)c1ccccc1 (stereo not shown) [2-Amino-2-phenylacetonitrile]	0.0000		
CC(C)(C)C#N [Pivalonitrile]		0.1569	
N#CCc1ccc(Br)cc1 [4-Bromobenzyl cyanide]		0.5213	
N#CCCO [3-Hydroxypropionitrile]		0.1785	

Molecule	amount of NH4 ions produced in the supernatant (Table 2, Experiment 2) [1]	amount of NH4 ions produced in the supernatant (Table 1, Experiment 1) [1]	also measured
CCCCC#N [Valeronitrile]	1.9218		
CC(C#N)CCC#N (stereo not shown) [2-Methylglutaronitrile]		0.4758	
CC(C)=CCC/C(C)=C/C#N [Geranonitrile]		0.1517	
CC(C#N)c1ccccc1 (stereo not shown) [2-Phenylpropionitrile]	0.0000		
N#CC(O)CCc1ccccc1 (stereo not shown) [2-Hydroxy-4-phenylbutyronitrile]	0.0000		
N#CCc1ccc(F)cc1 [4-Fluorobenzyl cyanide]		0.2361	
COC(CC#N)OC [3,3-Dimethoxypropionitrile]	0.1466		
N#CCc1ccc(Cl)cc1 [4-Chlorobenzyl cyanide]		0.4830	
N#Cc1ccccc1 [Benzonitrile]	1.9518	0.4051	
N#CC(O)c1ccccc1 (stereo not shown) [Mandelonitrile]	0.0000		
N#CCc1ccsc1 [3-Cyanomethylthiophene]	0.9949		
CC=CC#N [Crotononitrile]		0.4946	
N#CCc1ccccn1 [2-Pyridylacetonitrile]		0.1222	
N#CCC(CC#N)c1ccccc1 [3-Phenylglutaronitrile]	0.0000		
N#CCC#N [Malononitrile]		0.1208	
N#Cc1cccnc1 [3-Cyanopyridine]		0.2393	
N#CCc1ccccc1Cl [2-Chlorobenzyl cyanide]		0.4530	
nitrilase with His6 motif: Recombinant nitA nitrilase of R. rhodochrous NCIMB 11216 with C-terminal His6 motif from E. coli JM 109 (pDHE 18), purified on Ni2+-NTA (protein, UniProt Q03217 2-366, looked up, C-terminal His6 tag, Recombinant nitA nitrilase of R. rhodochrous NCIMB 11216 with C-terminal His6 motif from E. coli JM 109 (pDHE 18), purified on Ni2+-NTA) Aliphatic nitrilase: VEYTNTFKVAAVQAQPVWFDAAKTVDKTVSIIAEAARNGCELVAFPEVFIPGYPYHIWVDSPLAGMAKFAVRYHENSLTMDSPHVQRLLDAARDHNIAVVVGISERDGGSLYMTQLVIDADGQLVARRRKLKPTHVERSVYGEGNGSDISVYDMPFARLGALNCWEHFQTLTKYAMYSMHEQVHVASWPGMSLYQPEVPAFGVDAQLTATRMYALEGQTFVVCTTQVVTPEAHEFFCDNDEQRKLIGRGGGFARIIGPDGRDLATPLAEDEEGILYADIDLSAITLAKQAADPVGHYSRPDVLSLNFNQRHTTPVNTAISTIHATHTLVPQSGALDGVRELNGADEQRALPSTHSDETDRATASI			conversion of 2-benzonitrile [sic] into benzoic acid (specific activity), purified nitrilase [2]: around 11 U/mg
